Laboratory results reported in article PMC9038204, “SNX27–Retromer directly binds ESCPE-1 to transfer cargo proteins during endosomal recycling” (PLoS Biology, 2022).
Like-named read-outs stand apart in the source and are kept apart here. Where no end group is shown, it is not given here.

Tests used:
[1] = tested on: HeLa cells, EEA1 endosomes; assay: Colocalization of GFP-tagged SNX27 or SNX1 constructs with EEA1 (Pearson); format: cell-based
Description: (§1) Cells were fixed in 4% (v/v) PFA for 20 minutes and washed 3 times in PBS and permeabilized with 0.1% (v/v) Triton X-100. For LAMP1 staining, cells were instead permeabilized by submersion in liquid nitrogen for 20 seconds. Fixed cells were blocked in 1% (w/v) BSA and incubated in primary antibody and respective secondary antibody (Alexa Fluor; Thermo Fisher Scientific) in 1% (w/v) BSA.
(§2) Microscopy images were collected with a confocal laser-scanning microscope (SP5 AOBS; Leica Microsystems, Germany) attached to an inverted epifluorescence microscope (DMI6000; […]). A 63× 1.4 NA oil immersion objective (Plan Apochromat BL; Leica Biosystems, Germany) and the standard SP5 system acquisition software and detector were used. Images were captured at room temperature as z stacks with photomultiplier tube detectors with a photocathode made of gallium-arsenide-phosphide (Leica Microsystems) for collecting light emission. Images were captured using Application Suite AF software (version 2.7.3.9723; Leica Microsystems) and then analyzed with the Volocity 6.3 software (PerkinElmer, USA).

[2] = tested on: HeLa cells, SNX6 endosomes; assay: Colocalization of GFP-tagged SNX27 or SNX1 constructs with SNX6 (Pearson); format: cell-based
Description: as §1, §2

SNX27 = assay: GFP trap co-immunoprecipitation of GFP-SNX1/SNX2 constructs from HEK-293T, quantitative western blot: SNX27; format: binding; details: for reduced binding to SNX27: full-length GFP-SNX1 point mutants in HEK293T, versus SNX1 WT; for SNX27 co-immunoprecipitated (quantitative western blot), mean: Fig. 3F, GFP-tagged SNX1 WT or mutant as bait, HEK-293T, WT set to 100, mean of n = 4
Description: (§3) HeLa and HEK-293T cell lines were sourced from ATCC. Authentication was from the ATCC. Cells were grown in DMEM (Sigma-Aldrich) supplemented with 10% (v/v) FCS (Sigma-Aldrich) and penicillin/streptomycin (Gibco, USA) and grown under standard conditions. FuGENE HD (Promega, USA) was used for transient transfection of DNA according to the manufacturer’s instructions. Cycloheximide was used to prevent up-regulation of protein synthesis. In this case, cycloheximide (C7698; Sigma-Aldrich) at 10 μg/ml was added to the cells 48 hours after FuGENE transfection for the indicated time points. For the generation of CRISPR-Cas9 SNX27 knockout HeLa cells, HeLa cells were transfected with pX330 plasmid coding for the gRNA against the gene of interest together with a puromycin resistance–expressing plasmid. Cells were then subjected to puromycin selection for 24 hours. The pooled population of cells was subjected to lysis and western blotting to confirm the knockout. The VPS35 knockout clonal cell line used in this study was characterized previously. For GFP-based immunoprecipitations, HEK293T cells were transfected with GFP constructs using polyethylenimine (Sigma-Aldrich) and expression was allowed for 48 hours.
(§4) For western blotting, cells were lysed in PBS with 1% (v/v) Triton X-100 and protease inhibitor cocktail. The protein concentration was determined with a BCA assay kit (Thermo Fisher Scientific, USA), and equal amounts were resolved on NuPAGE 4% to 12% precast gels (Invitrogen, USA). Blotting was performed onto polyvinylidene fluoride membranes (Immobilon-FL; EMD Millipore, USA) followed by detection using the Odyssey infrared scanning system (LI-COR Biosciences, USA). For GFP-based immunoprecipitations, HEK-293T cells were lysed 48 hours after transfection in immunoprecipitation buffer (50 mM Tris-HCl, 0.5% (v/v) NP-40, and Roche protease inhibitor cocktail) and subjected to GFP trap (ChromoTek, Germany). Immunoblotting was performed using standard procedures. Detection was performed on an Odyssey infrared scanning system (LI-COR Biosciences) using fluorescently labeled secondary antibodies. In using the Odyssey, we routinely performed western blot analysis where a single blot is simultaneously probed with antibodies against 2 proteins of interest (distinct antibody species) followed by visualization with the corresponding secondary antibodies conjugated to distinct spectral dyes.

[3] = target: T1, full-length mouse SNX27 (mSNX27FL) (Mus musculus, UniProt Q3UHD6); assay: ITC, hSNX1/2 peptides against mSNX27FL; format: binding; details: 25°C, 50 mM HEPES pH 7.5, 200 mM NaCl, 5% glycerol, 1 mM β-ME, 800 μM peptide titrated into 20 μM mSNX27FL, single-site fit, mean of at least 2 experiments
T1 construct: DNA encoding full-length mouse SNX27 (mSNX27FL hereafter) was inserted into the pMCSG7 vector; made in house; host or cells: Escherichia coli BL21 CodonPlus (DE3)
Description: Human SNX1 and SNX2 peptide sequences were synthesized by Genscript (USA). To obtain the peptide stock solutions at neutral pH, 100 mM Tris-HCl, pH 10.6 was used to dissolve the peptide to a final concentration of 8 mM. The peptides were SNX1_35-51 […], SNX135-51(D45K) […], SNX1_75-92 […], SNX2_16-33 […], SNX2_16-33(DLF/SSS) […], and SNX2_62-82 […].
All microcalorimetry experiments were conducted at 25°C using a PEAQ ITC (Malvern, UK) in 50 mM HEPES (pH 7.5), 200 mM NaCl, 5% glycerol, and 1 mM β-ME (ITC buffer). All proteins were purified by SEC using the same buffer prior to ITC experiments to avoid buffer mismatches. To measure binding of SNX27 to SNX1 proteins, 800 μM of hSNX27FERM was titrated into 20 μM of GST-mSNX1_1-139 or His-SNX1FL. For the binding of SNX1 and SNX2 peptides to SNX27, peptides were diluted 10-fold to 800 μM in ITC buffer peptides and titrated into 20 μM SNX27FL proteins containing the same 1:10 ratio of peptide buffer (100 mM Tris-HCl, pH 10.6). The competitive ITC experiments were carried out by titrating 800 μM SNX1_75-92 peptides into 20 μM proteins with 2-fold molar excess SNX2_16-33 peptide preincubated with SNX27 on ice for an hour. For ITC experiment using SNX1_75-92 against hSNX27 wild-type and single-site mutants, 600 μM SNX1_75-92 peptide was titrated into 20 μM hSNX27 proteins.
The ITC experiments were conducted with 1 injection of 0.4 μL followed by a series of 12 injections of 3.2 μL each with 180-second intervals and a stirring speed of 850 rpm. The heat exchange of interactions was obtained through integrating the observed peaks and background correction by subtracting the heats of dilution. Data were analyzed with Malvern software package by fitting and normalized data to a single-site binding model, yielding the thermodynamic parameters Kd, ΔH, ΔG, and −TΔS for all binding experiments. The stoichiometry was refined initially, and if the value was close to 1, then N was set to exactly 1.0 for calculation. All experiments were performed at least twice to guarantee reproducibility of the data.

SNX6 = assay: GFP trap co-immunoprecipitation from HEK-293T, quantitative western blot: SNX6; format: binding; details: Fig. 3F, GFP-tagged SNX1 WT or mutant as bait, WT set to 100, mean of n = 4
Description: as §3, §4

[4] = tested on: HeLa cells, endogenous GLUT1; assay: Cycloheximide degradation assay, GLUT1 level; format: cell-based; details: for GLUT1 level, 0h: 0h (set to 100)
Description: as §3, §4

[5] = tested on: HeLa cells, endogenous ITGA5; assay: Cycloheximide degradation assay, ITGA5 level; format: cell-based; details: for ITGa5 level, 0h: 0h (set to 100)
Description: as §3, §4

[6] = 8h relative to 0h = 100, replicate n1, Fig. 6C
[7] = 8h relative to 0h = 100, replicate n2, Fig. 6C
[8] = 8h relative to 0h = 100, replicate n3, Fig. 6C

GFP-SNX1: GFP-tagged full-length SNX1
colocalization with EEA1 (SNX1 vs EEA1), mean ([1]; mean of n = 3): 0.4267
colocalization with EEA1 (SNX1 vs EEA1) ([1]; replicate n1): 0.53
colocalization with EEA1 (SNX1 vs EEA1) ([1]; replicate n2): 0.34
colocalization with EEA1 (SNX1 vs EEA1) ([1]; replicate n3): 0.41
colocalization with SNX6 (SNX1 vs SNX6), mean ([2]; mean of n = 3): 0.6597
colocalization with SNX6 (SNX1 vs SNX6) ([2]; replicate n1): 0.81
colocalization with SNX6 (SNX1 vs SNX6) ([2]; replicate n2): 0.506
colocalization with SNX6 (SNX1 vs SNX6) ([2]; replicate n3): 0.663

GFP-SNX1(F47K): full-length GFP-SNX1 point mutant in the first aDLF motif
reduced binding to SNX27 (SNX27; Fig 3F): around 50%

GFP-SNX1(E42K): full-length GFP-SNX1 point mutant in the first aDLF motif
reduced binding to SNX27 (SNX27; Fig 3F): around 50%

GFP-SNX1(I46K): full-length GFP-SNX1 point mutant in the first aDLF motif
reduced binding to SNX27 (SNX27; Fig 3F): around 50%

EAGDSDTEGEDIFTGAA [SNX1_35-51]
Kd ([3]; read-out: Kd): 33.4 ± 1.89 µM

I46K
SNX27 co-immunoprecipitated (quantitative western blot), mean (SNX27; GFP trap): 47.55
SNX6 co-immunoprecipitated (quantitative western blot), mean (SNX6): 90.56

D87K
SNX27 co-immunoprecipitated (quantitative western blot), mean (SNX27; GFP trap): 34.69
SNX6 co-immunoprecipitated (quantitative western blot), mean (SNX6): 115.6

GFP-SNX1(E44K): full-length GFP-SNX1 point mutant in the first aDLF motif
reduced binding to SNX27 (SNX27; Fig 3F): around 50%

E84K
SNX27 co-immunoprecipitated (quantitative western blot), mean (SNX27; GFP trap): 45.59
SNX6 co-immunoprecipitated (quantitative western blot), mean (SNX6): 104.1

D45K
SNX27 co-immunoprecipitated (quantitative western blot), mean (SNX27; GFP trap): 45.07
SNX6 co-immunoprecipitated (quantitative western blot), mean (SNX6): 102

E44K
SNX27 co-immunoprecipitated (quantitative western blot), mean (SNX27; GFP trap): 63.19
SNX6 co-immunoprecipitated (quantitative western blot), mean (SNX6): 113.2

F47K
SNX27 co-immunoprecipitated (quantitative western blot), mean (SNX27; GFP trap): 42.86
SNX6 co-immunoprecipitated (quantitative western blot), mean (SNX6): 98.51

TDFEDLEDGESSSTSTVS [SNX2_16-33(DLF/SSS), SNX2 16–33 peptide with triple mutation DLF-SSS]
Kd ([3]; listed as SNX2(DLF-SSS)): no detectable binding
Kd ([3]; listed as hSNX216-33 (DLF-SSS)): No binding detected

TEVVLDDDREDLFAEATEEVS [SNX2_62-82]
Kd ([3]; read-out: Kd): 22.6 ± 1.89 µM

GFP-SNX1(D45K): full-length GFP-SNX1 point mutant in the first aDLF motif
reduced binding to SNX27 (SNX27; Fig 3F): around 50%

EAGDSDTEGEKIFTGAA [SNX1_35-51(D45K), SNX1 35–51 peptide with charge swap mutation D45K]
Kd ([3]; listed as SNX1(D45K)): no detectable binding
Kd ([3]; listed as hSNX135-51 (D45K)): No binding detected

KO +GFP-SNX1
GLUT1 level, 0h ([4]; replicate n1, Fig. 6C): 100
GLUT1 level, 0h ([4]; replicate n2, Fig. 6C): 100
GLUT1 level, 0h ([4]; replicate n3, Fig. 6C): 100
GLUT1 level, 0h, Mean 1 ([4]; 0h, mean of n = 3, Fig. 6C): 100
GLUT1 level, 8h, Mean 2 ([4]; 8h relative to 0h = 100, mean of n = 3, Fig. 6C): 106.2
GLUT1 level, 8h [4, 6]: 90.4645
GLUT1 level, 8h [4, 7]: 112.847
GLUT1 level, 8h [4, 8]: 115.364
ITGa5 level, 0h ([5]; replicate n1, Fig. 6C): 100
ITGa5 level, 0h ([5]; replicate n2, Fig. 6C): 100
ITGa5 level, 0h ([5]; replicate n3, Fig. 6C): 100
ITGa5 level, 0h, Mean 1 ([5]; 0h, mean of n = 3, right-hand (unlabelled) statistics block, Fig. 6C): 100
ITGa5 level, 8h [5, 6]: 98.9429
ITGa5 level, 8h [5, 7]: 105.348
ITGa5 level, 8h [5, 8]: 145.221

E42K
SNX27 co-immunoprecipitated (quantitative western blot), mean (SNX27; GFP trap): 52.35
SNX6 co-immunoprecipitated (quantitative western blot), mean (SNX6): 105.5

GFP-SNX1(D45K,D87K): double mutant targeting key residues in both aDLF motifs of SNX1
SNX27 binding, in words (SNX27; Fig 3F, S2B Fig, double aDLF mutants in HEK293T, GFP trap): near undetectable levels

F89D
SNX27 co-immunoprecipitated (quantitative western blot), mean (SNX27; GFP trap): 41.68
SNX6 co-immunoprecipitated (quantitative western blot), mean (SNX6): 109.4
